Values of other authors as cited in publication PMC10010643 (Cancer Chemotherapy and Pharmacology, 2023).

Experiments:
galectin-3 [1] = conditions: cited from earlier work
[2] = parameters: method as in PMID 36154172; conditions: cited from earlier work
galectin-3 [3] = test system: galectin-3; parameters: method as in PMID 33214209; conditions: inhaled; cited from earlier work

Question: Which “Binding affinity for galectin-3” value (galectin-3 [1]) does the source give for `OC[C@H]1O[C@@H](S[C@@H]2O[C@H](CO)[C@H](O)[C@H](n3cc(-c4cccc(F)c4)nn3)[C@H]2O)[C@H](O)[C@@H](n2cc(-c3cccc(F)c3)nn2)[C@H]1O` [GB0139] here?
Answer: Its value is “high binding affinity”.

Question: What about the “Elimination if administered systemically” value [2] of the same compound?
Answer: Its value is “prompt elimination”.

Question: And the Intestinal absorption [2]?
Answer: The Intestinal absorption was “poor intestinal absorption”.

Question: What about the Galectin-3 expression (galectin-3 [3]) of the same compound?
Answer: The Galectin-3 expression was “suppressed galectin-3 expression”.

Question: What about the “Plasma biomarkers associated with IPF disease progression” value (galectin-3 [3]) of the same compound?
Answer: The value was “decreased plasma biomarkers associated with IPF disease progression”.
